This note sets out measurements from article PMC3139024 (Bioorganic & medicinal chemistry letters, 2011).

Broadly, the MIC is the smallest concentration in the dilution series that meets the test's criterion for growth inhibition. A high value points to weaker potency.

One experiment deals with HL-60/RV+. The experiment can be described thus: cytotoxicity profile, HL-60/RV+. It counts as cell-based. Conditions: Homo sapiens, HL-60, read-out: Cytotoxicity IC50, HL-60/RV+.
A further experiment concerns the target EcPDF (Escherichia coli, UniProt P0A6K3). The experiment can be described thus: EcPDF inhibition, potency and selectivity profiling. It counts as biochemical. Conditions: for EcPDF (%I): % Inhibition at 100 μM, average of duplicates, 100: ≥100 %I, 0: ≤0 %I.
The subject of another experiment is HEK293. Briefly: cytotoxicity profile, HEK293. Conditions: Homo sapiens, HEK293, read-out: Cytotoxicity IC50, HEK293. It counts as cell-based.
For another experiment, the system named is Meso47. The experiment can be described thus: cytotoxicity profile, Meso47. It counts as cell-based. Conditions: read-out: Cytotoxicity IC50, Meso47.
In another experiment the target is T1, HsPDF (Homo sapiens, UniProt Q9HBH1).
T1 sequence (Q9HBH1 40-243): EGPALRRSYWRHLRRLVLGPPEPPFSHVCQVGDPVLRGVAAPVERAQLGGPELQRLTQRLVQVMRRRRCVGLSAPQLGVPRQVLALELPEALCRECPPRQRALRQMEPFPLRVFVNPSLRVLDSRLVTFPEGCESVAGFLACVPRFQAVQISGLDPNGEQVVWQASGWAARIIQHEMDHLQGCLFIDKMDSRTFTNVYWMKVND
Briefly: HsPDF inhibition, potency and selectivity profiling. It counts as biochemical. Conditions: for inhibition at 100 µM: read-out: HsPDF (%I); for HsPDF (%I): % Inhibition at 100 μM, average of duplicates, 100: ≥100 %I, 0: ≤0 %I.

For experiment [1], the system named is panel of 15 bacterial strains. The experiment can be described thus: organism not typed. It counts as cell-based.
A further experiment deals with metalloproteases tested. The experiment can be described thus: activity toward the metalloproteases tested. Conditions: Suppl. Table 2. It counts as biochemical.
The target of another experiment is T2, MMP-1 (Homo sapiens, UniProt P03956).
T2 sequence (P03956 100-469): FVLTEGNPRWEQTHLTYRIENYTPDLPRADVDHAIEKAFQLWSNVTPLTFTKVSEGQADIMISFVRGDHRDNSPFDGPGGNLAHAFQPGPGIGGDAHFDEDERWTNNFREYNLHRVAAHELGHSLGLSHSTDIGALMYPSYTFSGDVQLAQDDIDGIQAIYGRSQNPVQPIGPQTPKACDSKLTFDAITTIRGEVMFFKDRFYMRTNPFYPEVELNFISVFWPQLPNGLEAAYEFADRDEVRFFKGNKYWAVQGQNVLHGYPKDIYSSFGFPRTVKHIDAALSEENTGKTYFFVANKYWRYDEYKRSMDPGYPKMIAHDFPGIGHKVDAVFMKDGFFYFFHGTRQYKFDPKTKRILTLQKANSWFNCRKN
Briefly: MMP-1 inhibition, metalloprotease selectivity panel. It counts as biochemical. Conditions: for MMP-1 (%I): % Inhibition at 100 μM, average of duplicates, 100: ≥100 %I, 0: ≤0 %I.

The next experiment deals with Y79. The experiment can be described thus: cytotoxicity profile, Y79. It counts as cell-based. Conditions: Homo sapiens, Y79, read-out: Cytotoxicity IC50, Y79.
The test system of the next experiment is HL-60 tumors. The experiment can be described thus: mouse xenograft model using HL-60 cells. It counts as in vivo. Conditions: dose of 15 mg/kg, pilot study.
Experiment [2] deals with panel of nine well characterized cancer cell lines. Briefly: cytotoxicity profile across panel of nine cancer cell lines. Conditions: read-out: cytotoxicity IC50 range across cancer cell lines. It counts as cell-based.
A further experiment deals with APN (Homo sapiens, UniProt P15144). The experiment can be described thus: APN inhibition, metalloprotease selectivity panel. It counts as biochemical. Conditions: % Inhibition at 100 μM, average of duplicates; 100: ≥100 %I; 0: ≤0 %I.
A further experiment deals with CWR22. Briefly: cytotoxicity profile, CWR22. Conditions: CWR22, read-out: Cytotoxicity IC50, CWR22. It counts as cell-based.

EcPDF, sequence (P0A6K3 whole entry): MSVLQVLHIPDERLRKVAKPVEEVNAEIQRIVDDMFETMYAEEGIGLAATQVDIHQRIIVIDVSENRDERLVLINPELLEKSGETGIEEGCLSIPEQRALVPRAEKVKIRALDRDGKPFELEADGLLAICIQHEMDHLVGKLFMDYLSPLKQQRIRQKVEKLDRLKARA
APN, sequence (P15144 whole entry, species assumed): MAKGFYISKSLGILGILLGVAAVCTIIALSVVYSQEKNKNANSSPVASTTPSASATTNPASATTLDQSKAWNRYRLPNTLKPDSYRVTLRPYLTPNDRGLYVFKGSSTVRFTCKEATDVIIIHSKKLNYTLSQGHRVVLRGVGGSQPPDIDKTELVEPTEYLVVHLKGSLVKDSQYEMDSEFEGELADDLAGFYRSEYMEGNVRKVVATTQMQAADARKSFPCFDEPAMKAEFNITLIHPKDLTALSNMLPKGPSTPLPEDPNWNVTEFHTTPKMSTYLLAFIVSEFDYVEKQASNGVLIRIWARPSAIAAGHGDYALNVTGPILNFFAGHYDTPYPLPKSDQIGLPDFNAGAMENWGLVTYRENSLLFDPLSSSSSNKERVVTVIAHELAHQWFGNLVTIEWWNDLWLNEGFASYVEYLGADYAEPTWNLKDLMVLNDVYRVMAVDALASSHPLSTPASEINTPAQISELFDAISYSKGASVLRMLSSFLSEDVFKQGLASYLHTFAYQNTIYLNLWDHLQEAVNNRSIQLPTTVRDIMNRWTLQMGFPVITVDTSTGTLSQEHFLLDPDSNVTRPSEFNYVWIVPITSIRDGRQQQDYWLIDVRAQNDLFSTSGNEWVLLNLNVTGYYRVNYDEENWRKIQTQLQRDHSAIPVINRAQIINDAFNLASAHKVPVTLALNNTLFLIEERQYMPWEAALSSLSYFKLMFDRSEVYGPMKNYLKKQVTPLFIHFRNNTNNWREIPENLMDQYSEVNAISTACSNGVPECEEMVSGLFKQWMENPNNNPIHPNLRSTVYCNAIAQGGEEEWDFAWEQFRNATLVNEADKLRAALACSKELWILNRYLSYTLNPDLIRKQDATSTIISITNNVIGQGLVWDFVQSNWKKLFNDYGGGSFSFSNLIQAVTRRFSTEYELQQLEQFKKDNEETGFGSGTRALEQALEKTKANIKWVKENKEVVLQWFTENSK

Consider `COc1ccc(C(=O)c2coc3c2C(=O)C(=O)C(Br)=C3Br)cc1` [Compd 25], for which the IC50 with HL-60/RV+ was not below 100 µM; at EcPDF it was more than 100 µM; in the experiment with HEK293, not below 100 µM; in the experiment with Meso47, not below 100 µM. Moreover, the inhibition at 100 µM on HsPDF is not below 100%.
Take `COc1ccc(C(=O)c2coc3c2C(=O)C(=O)C(Cl)=C3Cl)cc1OC` [Compd 23]: the IC50 in the experiment with HL-60/RV+ and with HEK293 was not below 100 µM in each case. Further, the inhibition at 100 µM at HsPDF was not below 100%.
In the case of `CCCCC[C@H](CC(=O)NO)C(=O)N[C@H](C(=O)N1CCC[C@H]1CO)C(C)C` [Compd 1, actinonin, reference compound], the “antibacterial activity, number of strains” value in [1] (panel of 15 bacterial strains) was “active in 12 out of the 15 strains tested”.
As to `COc1ccc(C(=O)c2coc3c2C(=O)C(=O)c2ccccc2-3)cc1OC` [Compd 33], in the experiment with metalloproteases tested, the “activity toward any of the metalloproteases tested” value (shortened to “activity toward any”) is given as “no activity”.
`COc1ccc(C(=O)c2coc3c2C(=O)C(=O)C(Cl)=C3Cl)cc1` [Compd 22]: at MMP-1, the “MMP-1 (%I)” value is listed as “no significant activity”. For the same molecule, the inhibition at 100 µM on MMP-1 (read-out: MMP-1 (%I)) is not above 0%. The same molecule had an MIC in [1] of more than 64 µg/mL. Moreover, at EcPDF, the IC50 is more than 100 µM and the “EcPDF (%I)” value is given as “no significant activity”. Besides, in the experiment on Meso47, the IC50 is not below 100 µM.
`O=C1C(=O)c2c(C(=O)c3ccccc3)coc2C(Cl)=C1Cl` [Compd 5] came in with an MIC in experiment [1] of more than 64 µg/mL. Moreover, the IC50 in the experiment with HL-60/RV+ was not below 100 µM; in the experiment with Y79, not below 100 µM; against EcPDF it was more than 100 µM; in the experiment with HEK293, not below 100 µM; with Meso47, not below 100 µM. Besides, the inhibition at 100 µM at HsPDF is not below 100%.
Consider `COc1ccc(C(=O)c2coc3c2C(=O)C(=O)C=C3Br)cc1` [Compd 21], for which the IC50 is more than 100 µM against EcPDF and not below 100 µM with Meso47. In addition, on HsPDF, the inhibition at 100 µM was not below 100%.
For `COc1cc(C(=O)c2coc3c2C(=O)C(=O)c2ccccc2-3)cc(OC)c1OC` [Compd 34], the “activity toward any” value with metalloproteases tested was “no activity”.
Take `COc1cc(C(=O)c2coc3c2C(=O)C(=O)C(Br)=C3Br)cc(OC)c1OC` [Compd 27]: the “delay of growth of HL-60 tumors” value in the experiment with HL-60 tumors was “up to 40%”. Moreover, in experiment [2], the IC50 is 2.8 to 37 µM. Besides, at EcPDF, the “EcPDF (IC50, μM)” value is given as “no significant activity” and the IC50 was more than 100 µM. The inhibition at 100 µM on HsPDF was not below 100%.
Turning to `O=C1C=Cc2occ(C(=O)c3ccccc3)c2C1=O` [Compd 16], on MMP-1, the “MMP-1 (%I)” value was “low activity”. At APN, the “APN (%I)” value is reported as “low activity”. Moreover, at EcPDF, the IC50 was more than 100 µM and the “EcPDF (%I)” value was “low activity”. At HsPDF, the “HsPDF (%I)” value is “completely inhibited” and the inhibition at 100 µM is not below 100%.
As for `COc1ccc(C(=O)c2coc3c2C(=O)C(=O)C(Cl)=C3)cc1` [Compd 20], the figures for the IC50 on EcPDF and in the experiment on HEK293 were more than 100 µM and not below 100 µM, respectively.
As to `COc1ccc(C(=O)c2coc3c2C(=O)C(=O)c2ccccc2-3)cc1` [Compd 32], the “activity toward any” value with metalloproteases tested was “no activity”.
Take `COc1ccc(C(=O)c2coc3c2C(=O)C(=O)C=C3)cc1` [Compd 17]: the “MMP-1 (%I)” value on MMP-1 is “low activity”. Also, the “APN (%I)” value at APN was “low activity”. For the same molecule, at EcPDF, the IC50 is more than 100 µM and the “EcPDF (%I)” value is given as “low activity”. Further, the IC50 with Meso47 was not below 100 µM. Also, the “HsPDF (%I)” value at HsPDF was “completely inhibited”.
Consider `COc1ccc(C(=O)c2coc3c2C(=O)C(=O)C(Br)=C3Br)cc1OC` [Compd 26], for which the IC50 in the experiment on Y79 is not below 100 µM; on EcPDF, more than 100 µM; in the experiment with HEK293 it was not below 100 µM; in the experiment on CWR22 it was not below 100 µM; in the experiment on Meso47 it was not below 100 µM. For the same molecule, the inhibition at 100 µM at HsPDF is not below 100%.
With `COc1ccc(C(=O)c2coc3c2C(=O)C(=O)C=C3Cl)cc1` [Compd 19], the values for the IC50 on EcPDF and in the experiment with Meso47 were more than 100 µM and not below 100 µM, respectively. In addition, the inhibition at 100 µM at HsPDF is not below 100%.
For `COc1cc(C(=O)c2coc3c2C(=O)C(=O)C(Cl)=C3Cl)cc(OC)c1OC` [Compd 24], in that order: more than 100 µM, not below 100 µM and not below 100%.
